Consider 5 compounds from ChEMBL document CHEMBL5532639, “Heterocyclic pyrimidine derivatives as promising antibacterial agents” (Eur J Med Chem, 2023).

Converted amounts (≈) assume the structure as drawn.

Test [1] concerns Bacillus subtilis. The experiment in a line: Antibacterial activity against Bacillus subtilis assessed as bacterial growth inhibition by measuring zone of inhibition at 50 ug/ml by agar cup diffusion assay. Format: functional. The conditions noted are these: read-out: IZ.
Test [2] relates to Pseudomonas aeruginosa. The experiment in a line: Antimicrobial activity against Pseudomonas aeruginosa assessed as diameter of inhibition zone incubated for 24 hrs by well diffusion assay. The class given is functional. (In general: Agar diffusion results depend on both activity and mobility in agar.)
Test [3] concerns Salmonella typhimurium. As to the kind of experiment: Antimicrobial activity against Salmonella typhimurium DT104 assessed as diameter of inhibition zone incubated for 24 hrs by well diffusion assay. Format: functional, Salmonella enterica subsp. enterica serovar Typhimurium.
The next test has as its system Micrococcus luteus. As to the kind of experiment: Antimicrobial activity against Micrococcus luteus assessed as diameter of inhibition zone incubated for 24 hrs by well diffusion assay. The class given is functional.
Test [4] deals with Escherichia coli. As to the kind of experiment: Antibacterial activity against Escherichia coli assessed as bacterial growth inhibition by measuring zone of inhibition at 50 ug/ml by agar cup diffusion assay. The conditions noted are these: read-out: IZ. The class given is functional.
Test [5] relates to Salmonella typhimurium. The experiment in a line: Antibacterial activity against Salmonella typhimurium DT104 assessed as bacterial growth inhibition by measuring zone of inhibition at 50 ug/ml by agar cup diffusion assay. Format: functional, Salmonella enterica subsp. enterica serovar Typhimurium. The conditions noted are these: Salmonella enterica, read-out: IZ.
The subject of test [6] is Staphylococcus aureus. The experiment in a line: Antibacterial activity against Staphylococcus aureus assessed as bacterial growth inhibition by measuring zone of inhibition at 50 ug/ml by agar cup diffusion assay. Format: functional. The conditions noted are these: read-out: IZ.
Test [7] has as its system Bacillus subtilis. As to the kind of experiment: Antimicrobial activity against Bacillus subtilis assessed as diameter of inhibition zone incubated for 24 hrs by well diffusion assay. Format: functional.
Test [8] concerns Pseudomonas aeruginosa. The experiment in a line: Antibacterial activity against Pseudomonas aeruginosa. The class given is functional.
The test system of test [9] is Bacillus subtilis. As to the kind of experiment: Antibacterial activity against Bacillus subtilis. The class given is functional.
Test [10] concerns Streptococcus pneumoniae. The experiment in a line: Antibacterial activity against Streptococcus pneumoniae. The class given is functional.
Test [11] relates to Escherichia coli. As to the kind of experiment: Antibacterial activity against Escherichia coli. The class given is functional.
In test [12] the test system is Staphylococcus aureus. The experiment in a line: Antibacterial activity against Staphylococcus aureus. Format: functional.
The test system of test [13] is Bacillus subtilis. The experiment in a line: Antibacterial activity against Bacillus subtilis 6633 assessed as reduction in bacterial growth. Format: functional.
A further test relates to Streptococcus pyogenes. As to the kind of experiment: Antibacterial activity against Streptococcus pyogenes assessed as reduction in microbial growth by CLSI based broth microdilution method. The class given is functional. On the technique in general: Dilution methods test growth across graded concentrations, often in twofold steps.
Test [14] deals with Bacillus subtilis. The experiment in a line: Antimicrobial activity against Bacillus subtilis RCMB 010069 assessed as bacterial growth inhibition by measuring zone of inhibition at 50 ug/ml by agar cup diffusion assay. Format: functional. The conditions noted are these: read-out: IZ.
Test [15] relates to Staphylococcus aureus. As to the kind of experiment: Antibacterial activity against Staphylococcus aureus assessed as reduction in microbial growth by CLSI based broth microdilution method. The class given is functional.
For test [16], the system named is Pseudomonas aeruginosa. The experiment in a line: Antibacterial activity against Pseudomonas aeruginosa assessed as reduction in bacterial growth by broth microdilution method. Format: functional.
Test [17] concerns Streptococcus pneumoniae. As to the kind of experiment: Antimicrobial activity against Streptococcus […] assessed as bacterial growth inhibition by measuring zone of inhibition at 50 ug/ml by agar cup diffusion assay. Format: functional. The conditions noted are these: read-out: IZ.
For test [18], the system named is Escherichia coli. As to the kind of experiment: Antibacterial activity against Escherichia coli assessed as bacterial growth inhibition incubated for 18 hrs by CLSI protocol based Mueller-Hinton broth assay. Format: functional.
The subject of test [19] is Salmonella typhimurium. The experiment in a line: Antibacterial activity against Salmonella typhimurium DT104 assessed as reduction in bacterial growth. The conditions noted are these: Salmonella enterica. Format: functional, Salmonella enterica subsp. enterica serovar Typhimurium.
Test [20] has as its system Staphylococcus aureus. The experiment in a line: Antibacterial activity against Staphylococcus aureus ATCC 3750 assessed as reduction in bacterial growth. The class given is functional.
Test [21] concerns Escherichia coli. As to the kind of experiment: Antibacterial activity against Escherichia coli ATCC 25922 assessed as bacterial growth inhibition. Format: functional.
The subject of test [22] is Bacillus subtilis. As to the kind of experiment: Antibacterial activity against Bacillus subtilis assessed as reduction in bacterial cell viability by well plate method. The class given is functional.
Test [23] relates to Escherichia coli. As to the kind of experiment: Antibacterial activity against Escherichia coli assessed as reduction in bacterial growth by broth microdilution method. The class given is functional.
The test system of test [24] is Staphylococcus epidermidis. As to the kind of experiment: Antibacterial activity against Staphylococcus epidermidis assessed as reduction in microbial growth. The class given is functional.
In another test the test system is Klebsiella pneumoniae. As to the kind of experiment: Antibacterial activity against Klebsiella pneumoniae assessed as reduction in bacterial growth by broth microdilution method. Format: functional.
For test [25], the system named is Pseudomonas aeruginosa. As to the kind of experiment: Antibacterial activity against Pseudomonas aeruginosa assessed as reduction in microbial growth by broth microdilution method. The class given is functional.
Test [26] concerns Pseudomonas aeruginosa. As to the kind of experiment: Antibacterial activity against Pseudomonas aeruginosa assessed as reduction in microbial growth after 18 hrs by MTT based broth dilution method. The class given is functional.
Test [27] concerns Staphylococcus aureus. The experiment in a line: Antibacterial activity against Staphylococcus aureus assessed as bacterial growth inhibition. Format: functional.
Test [28] concerns Escherichia coli. The experiment in a line: Antibacterial activity Escherichia coli assessed as reduction in bacterial growth. Format: functional.

Take `CN(C)[C@@H]1C(O)=C(C(N)=O)C(=O)[C@@]2(O)C(O)=C3C(=O)c4c(O)cccc4[C@@](C)(O)[C@H]3C[C@@H]12` [TETRACYCLINE]: the zone of inhibition at 50 µg/mL in the test on Bacillus subtilis [1] came to 21 mm; in the test on Escherichia coli [4], 15 mm; with Salmonella typhimurium [5] it was 24 mm; with Staphylococcus aureus [6], 19 mm. In addition, the “inhibition zone (IZ)” value turned out to be 18 mm in the test on Pseudomonas aeruginosa [2], 8 mm in the test with Salmonella typhimurium [3], 16 mm in the test with Micrococcus luteus and 14 mm in the test with Bacillus subtilis [7].

What is called MIC is the lowest concentration found to suppress growth. As to `O=c1[nH]c(=S)[nH]c2nc(-c3ccc(Cl)cc3)cc(-c3ccccc3)c12`, the MIC against Pseudomonas aeruginosa [8] turned out to be 3.9 µg/mL (≈ 10.7 µM); in the test with Bacillus subtilis [9] it was 1.95 µg/mL (≈ 5.33 µM); with Streptococcus pneumoniae [10], 0.98 µg/mL (≈ 2.68 µM); with Escherichia coli [11], 0.98 µg/mL (≈ 2.68 µM); with Staphylococcus aureus [12], 3.9 µg/mL (≈ 10.7 µM).

As to `CC1(C)S[C@@H]2[C@H](NC(=O)[C@H](N)c3ccccc3)C(=O)N2[C@H]1C(=O)O` [AMPICILLIN], the MIC in the test on Bacillus subtilis [13] turned out to be 4 µg/mL (≈ 11.4 µM); in the test with Bacillus subtilis [9] it was 0.49 µg/mL (≈ 1.4 µM); with Streptococcus pyogenes, 100 µg/mL; with Staphylococcus aureus [15], 250 µg/mL; in the test on Streptococcus pneumoniae [10], 0.98 µg/mL (≈ 2.8 µM); with Pseudomonas aeruginosa [16], 100 µg/mL (≈ 286 µM). Besides, the MIC was 100 µg/mL (≈ 286 µM) in the test on Escherichia coli [18]; 49 µg/mL (≈ 140 µM) with Salmonella typhimurium [19]; 0.49 µg/mL (≈ 1.4 µM) in the test on Staphylococcus aureus [12]; 50 µg/mL (≈ 143 µM) with Staphylococcus aureus [20]; 4 µg/mL (≈ 11.4 µM) in the test with Escherichia coli [21]. The zone of inhibition at 50 µg/mL was 32.4 mm with Bacillus subtilis [14] and 23.8 mm in the test with Streptococcus pneumoniae [17].

For the compound `COc1ccc(C2C3=C(CCCC3=O)Oc3nc(-c4cc5ccccc5oc4=O)[nH]c(=O)c32)cc1OC` (configuration not stated), the MIC in the test with Bacillus subtilis [22] is 50 µg/mL (≈ 100 µM); in the test with Escherichia coli [23] it was 12.5 µg/mL (≈ 25.1 µM); in test [24], 100 µg/mL; in the test with Klebsiella pneumoniae, 50 µg/mL (≈ 100 µM); in the test on Pseudomonas aeruginosa [25], 50 µg/mL; in the test on Pseudomonas aeruginosa [26] it was 50 µg/mL. Further, the MIC in the test with Staphylococcus aureus [27] and in the test on Escherichia coli [28] was 50 µg/mL (≈ 100 µM) each time.

For the compound `O=C1CCCC2=C1C(c1ccc(Cl)cc1)c1c(nc(-c3cc4ccccc4oc3=O)[nH]c1=O)O2` (configuration not stated), the MIC stood at 25 µg/mL (≈ 52.9 µM) in the test with Bacillus subtilis [22]; 50 µg/mL (≈ 106 µM) with Escherichia coli [23]; 50 µg/mL in test [24]; 100 µg/mL (≈ 211 µM) in the test with Klebsiella pneumoniae; 100 µg/mL in the test with Pseudomonas aeruginosa [25]; 100 µg/mL in the test with Pseudomonas aeruginosa [26]. The minimum inhibitory concentration (MIC) with Staphylococcus aureus [27] and in the test on Escherichia coli [28] was 100 µg/mL (≈ 211 µM) in each case.
